Here are results for 1 substance from US20070059687A1, “Process for evaluating phagocytotic function and use thereof” (priority 2001, published 2007).

The subject of data set [1] is Staphylococcus epidermidis. Put plainly: Lysis evaluated by decrease in turbidity at 600 nm. It counts as cell-based. The conditions noted are these: for Decrease in turbidity of bacteria: lysostafin 50 unit/ml. From the text:
(§1) Conditions for the enzyme to lyse Staphylococcus aureus (ATCC 12600), Staphylococcus epidermidis (ATCC 14990), Pseudomonas aeruginosa (ATCC 10145), Enterococcus faecalis (ATCC 19433) and Escherichia coli (ATCC 11775) were studied. For Staphylococcus aureus and Staphylococcus epidermidis, lysostafin was used as the lytic enzyme (Bur. J. Biochem., 38, 293-300, 1973). […] Further, for Pseudomonas aeruginosa and Escherichia coli, PBS containing 70 mmol/l sodium hydroxide was used. Each type of these bacteria was inoculated in 5 ml of BHI (Brain Heart Infusion) liquid medium (manufactured by DIFCO), and cultured at 37° C. for 8 hours or longer. Thus cultured bacterial liquid was collected by centrifugation at 4° C. for 10 minutes at 2,000×g. The collected bacteria were suspended in PBS to give a sample.
Lysis was evaluated by decrease in turbidity of the bacterial liquid at the absorbance of 600 nm using a microplate reader. Consequently, Staphylococcus aureus and Staphylococcus epidermidis were lysed by lysostafin. In respect of Pseudomonas aeruginosa and Escherichia coli, no enzymatic treatment was required because lysis was conducted with PBS containing 70 mmol/l sodium hydroxide. […] Moreover, when the bacterium incorporated upon phagocytotic action is for example, Pseudomonas aeruginosa, Escherichia coli or the like, bacterial cell wall is lysed during the alkaline treatment to result in the state in which the gene is exposed. Therefore, it is not necessary to conduct this enzymatic treatment. Each enzyme for the pretreatment which is used in lysis of the foreign microorganism according to the present invention is effective not only for the aforementioned bacterial strain, but also for other bacterial strain that includes other genus staphylococcus, genus streptococcus, genus bacillus, genus micrococcus and the like. […] The results are illustrated in FIG. 3, specifically, in regard to: (a) Staphylococcus aureus and Staphylococcus epidermidis, (b) Pseudomonas aeruginosa and Escherichia coli, and (c) Enterococcus faecalis.
Enterococcus faecalis was inoculated in 50 ml of the aforementioned BHI liquid medium, and cultured at 37° C. for 8 hours or longer. This culture liquid was centrifuged at 4° C. for 10 minutes at 2,000×g to collect the bacteria, followed by subjecting to a heat treatment in an autoclave (120° C., for 10 minutes) after suspending in PBS. Next, the suspension was centrifuged at 4° C. for 10 minutes at 2,000×g, and the supernatant was discarded. Precipitates were suspended in 1 ml of PBS, and thereafter, subjected to freeze-drying. This freeze-dried sample was suspended in 5 mmol/l Tris-hydrochloric acid (pH 6.0), 2 mmol/l magnesium chloride containing 0 to 10% DMSO to give the samples for N-acetylmuramidase. Further, Micrococcus luteus (JCM1464) was inoculated in 5 ml of BHI liquid medium (supra), and cultured at 37° C. for 8 hours or longer. The cultured bacterial liquid was centrifuged at 4° C. for 10 minutes at 2,000×g to collect the bacteria. After discarding the supernatant, and suspending and washing the bacterial pellet with 5 ml of PBS, centrifugation was conducted once again at 4° C. for 10 minutes at 2,000×g to collect the bacteria. […] Enzymatic activity was evaluated on the basis of the decrease in turbidity of the sample at the absorbance of 600 nm using a microplate reader. […] Additionally, no decrease in enzymatic activity was found with DMSO at the concentration of 2% or less. […] The results are show in FIG. 4(a) to (c) and Table 3 below.

Another data set relates to SE digested sample. Put plainly: Enzymatic treatment of digested sample, bacterial bodies in leukocytes by acridine orange staining. It counts as cell-based, Staphylococcus epidermidis. Also noted: key to enzymatic treatment determination: The determination was made as adequate when no bacterial body was identified in the leukocytes by the enzymatic treatment. To be noted: for enzymatic treatment determination: SE digested sample, once, twice, thrice. As to the method:
(§2) Using the slide glass having each digested sample smeared thereon, the enzymatic pretreatment was performed according to the process described in Example 3. Next, the slide glass after completing the enzymatic pretreatment was placed in a humid box, and the reaction was allowed by dropping 1 ml of each enzyme solution prepared to give each titer on the smeared site of the specimen. Thereafter, the slide glass was immersed in PBS containing 0.2 mol/l hydrochloric acid, and in 70% ethanol respectively, for 10 minutes, and air dried. After immersing this slide glass in PBS containing 70 mmol/l sodium hydroxide for 3 minutes, and in 70% ethanol for 10 minutes, it was air dried and stained with 1% acridine orange staining solution. Then, evaluation was made with a fluorescence microscope (×1,000). For Staphylococcus aureus and Staphylococcus epidermidis, examination of the optimal titer was conducted with lysostafin. […] The determination was made as adequate when no bacterial body was identified in the leukocytes by the enzymatic treatment.
(§3) Using a slide glass including each digested sample smeared thereon, examination was conducted according to the process described in example 17 (2). Time period of the enzymatic treatment in this test was 30 minutes, and the temperature for examination was 4° C., 25° C., 37° C., 42° C., and 60° C.
(§4) Using the slide glass including each digested sample smeared thereon, examination was conducted according to the process described in example 17 (2). […] Determination was conducted according to the process described in example 17 (2). As a consequence, for all of Staphylococcus aureus, Staphylococcus epidermidis and Enterococcus faecalis digested samples, no bacterial body was found in the leukocytes with the time period of the enzymatic treatment of 20 minutes or longer (inadequate at 0 minute and 10 minutes). Therefore, the optimal time period of the enzymatic treatment is at least 15 minutes or longer, preferably 20 minutes or longer, and still preferably 30 minutes to 60 minutes.

In the next data set the test system is SA digested sample. The data set is described as above. The conditions noted are these: for enzymatic treatment determination: SA digested sample, once, twice, thrice. Also noted: key to enzymatic treatment determination: The determination was made as adequate when no bacterial body was identified in the leukocytes by the enzymatic treatment. It counts as cell-based, Staphylococcus aureus. Here is the method:
as §2, §3, §4

For another data set, the system named is Staphylococcus aureus. The data set can be described thus: Lysis evaluated by decrease in turbidity at 600 nm. To be noted: FIG. 3(a). Format: cell-based.
Source text: as §1, with “sample. Lysis was evaluated by decrease in turbidity of the bacterial liquid at the absorbance of 600 nm using a microplate reader. Consequently, Staphylococcus aureus and Staphylococcus epidermidis were lysed by lysostafin. In respect of Pseudomonas aeruginosa and Escherichia coli, no enzymatic treatment was required because lysis was conducted with PBS containing 70 mmol/l sodium hydroxide. […]” for “sample.”

Take “Lysostafin: lytic enzyme used for Staphylococcus aureus and Staphylococcus epidermidis”: the lysis entry (in data set [1] (FIG. 3(a)); in the data set on Staphylococcus aureus) was “lysed” throughout. In addition, the “Decrease in turbidity of bacteria” value was 0.168 ± 0.017 O.D./10 minutes in data set [1] (added DMSO 0 % (control)); 0.164 ± 0.009 O.D./10 minutes in data set [1] (added DMSO 0.1 %); 0.160 ± 0.008 O.D./10 minutes in data set [1] (added DMSO 1 %); 0.145 ± 0.009 O.D./10 minutes in data set [1] (added DMSO 2 %); 0.124 ± 0.006 O.D./10 minutes in data set [1] (added DMSO 5 %); 0.094 ± 0.006 O.D./10 minutes in data set [1] (added DMSO 10 %). Moreover, the enzymatic treatment determination result with SE digested sample (lysostafin titer 0.1 U/mL) is given as “inadequate”; in the data set with SE digested sample (lysostafin titer 1 U/mL), “inadequate”; in the data set on SE digested sample (lysostafin titer 10 U/mL) it was “adequate”; in the data set with SE digested sample (lysostafin titer 100 U/mL), “adequate”; in the data set on SE digested sample (lysostafin titer 1,000 U/mL), “adequate”; with SA digested sample (lysostafin titer 0.1 U/mL), “Inadequate”. Also, the enzymatic treatment determination entry in the data set with SA digested sample (lysostafin titer 1 U/mL), with SA digested sample (lysostafin titer 10 U/mL), with SA digested sample (lysostafin titer 100 U/mL) and in the data set on SA digested sample (lysostafin titer 1,000 U/mL) was “adequate” throughout. Besides, the “titer necessary for lysis” value with SE digested sample (lysis of Staphylococcus epidermidis) is listed as at least 10 unit/ml. The “titer at which sufficient effects were exerted” value in the data set with SA digested sample (lysis of Staphylococcus aureus) worked out at 1 unit/ml.
